The target in this assay is T1, human 5-HT7 receptor (Homo sapiens, UniProt P34969).
T1 construct: expressed in transfected cells; host or cells: CHO cells
T1 sequence (P34969 whole entry): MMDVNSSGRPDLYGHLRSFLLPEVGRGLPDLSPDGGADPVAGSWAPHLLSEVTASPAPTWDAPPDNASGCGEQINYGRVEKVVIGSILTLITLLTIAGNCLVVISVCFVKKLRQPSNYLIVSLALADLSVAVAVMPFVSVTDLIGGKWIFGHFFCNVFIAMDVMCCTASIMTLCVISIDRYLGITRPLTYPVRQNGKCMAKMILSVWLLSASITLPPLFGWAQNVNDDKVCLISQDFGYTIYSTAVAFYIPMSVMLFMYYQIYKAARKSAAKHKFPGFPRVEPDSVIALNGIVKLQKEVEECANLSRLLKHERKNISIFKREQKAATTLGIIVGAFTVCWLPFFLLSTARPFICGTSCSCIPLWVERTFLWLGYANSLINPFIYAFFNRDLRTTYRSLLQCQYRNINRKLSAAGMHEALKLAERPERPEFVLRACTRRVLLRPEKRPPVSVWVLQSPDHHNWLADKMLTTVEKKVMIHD
Briefly: 5-HT7 Receptor Binding Assay. Particulars: membranes of CHO cells expressing human 5-HT7 receptor; 1 nM 3H-5-carboxamidotryptamine; 25° C., 60 minutes. The procedure, abridged:
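Competition against 1 nM ^3H-5-carboxamidotryptamine over 0.1–1000 nM compound, 60 min, 25° C, 50 mM HEPES, 30 ug membrane protein from CHO cells expressing the human receptor. 10 uM serotonin defined non-specific binding. Bound label counted after filtration; IC50 from non-linear regression.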
Molecule `COc1ccccc1CCNc1nc(C)cc(N[C@@H](C)c2ccccc2)n1` [N^2-[2-(2-Methoxyphenyl)ethyl]-6-methyl-N^4-[(1S)-1-phenylethyl]pyrimidine-2,4-diamine] showed an IC50 of no more than 50 nM.

In turn, `COc1ccccc1CCNc1nccc(NC(C)c2ccccc2)n1` (stereo not shown) [N^2-[2-(2-Methoxyphenyl)ethyl]-N^4-(1-phenylethyl)pyrimidine-2,4-diamine] displayed a concentration for half-maximal inhibition (IC50) of 51 to 100 nM.

For the molecule `CC(Nc1ccnc(NCCc2ccc(Cl)c(Cl)c2)n1)c1ccccc1` (stereo not shown) [N^2-[2-(3,4-Dichlorophenyl)ethyl]-N^4-(1-phenylethyl)pyrimidine-2,4-diamine], the IC50 lay in the range of 51 to 100 nM.

`COc1cc(CCNc2nc(C)cc(N[C@@H](C)c3ccccc3)n2)cc(OC)c1` [N^2-[2-(3,5-Dimethoxyphenyl)ethyl]-6-methyl-N^4-[(1S)-1-phenylethyl]pyrimidine-2,4-diamine]: the 50% inhibitory concentration (IC50) is 51 to 100 nM.

In turn, `CC(=O)Nc1cccc(CCNc2nc(C)cc(N[C@@H](C)c3ccccc3)n2)c1` [N^2-[2-(3-Acetamidophenyl)ethyl]-6-methyl-N^4-[(1S)-1-phenylethyl]pyrimidine-2,4-diamine] came in with an IC50 of 101 to 200 nM.

Molecule `COc1ccc(CCNc2nc(C)cc(N[C@@H](C)c3ccccc3)n2)cc1Br` [N^2-[2-(3-Bromo-4-methoxyphenyl)ethyl]-6-methyl-N^4-[(1S)-1-phenylethyl]pyrimidine-2,4-diamine] came in with an IC50 of 51 to 100 nM.

Consider `Cc1cc(N[C@@H](C)c2ccccc2)nc(NCCc2cccc(Br)c2)n1` [N^2-[2-(3-Bromophenyl)ethyl]-6-methyl-N^4-[(1S)-1-phenylethyl]pyrimidine-2,4-diamine], for which the IC50 is no more than 50 nM.

`CC(Nc1ccnc(NCCc2cccc(Cl)c2)n1)c1ccccc1` (stereo not shown) [N^2-[2-(3-Chlorophenyl)ethyl]-N^4-(1-phenylethyl)pyrimidine-2,4-diamine] displayed a half-inhibitory concentration (IC50) of no more than 50 nM.

Molecule `Cc1cc(N[C@@H](C)c2ccccc2)nc(NCCc2cccc(C#N)c2)n1` [N^2-[2-(3-Cyanophenyl)ethyl]-6-methyl-N^4-[(1S)-1-phenylethyl]pyrimidine-2,4-diamine] displayed an IC50 of no more than 50 nM.

Consider `Cc1cc(N[C@@H](C)c2ccccc2)nc(NCCc2cccc(F)c2)n1` [N^2-[2-(3-Fluorophenyl)ethyl]-6-methyl-N^4-[(1S)-1-phenylethyl]pyrimidine-2,4-diamine], for which the 50% inhibitory concentration (IC50) was no more than 50 nM.

`CC(Nc1ccnc(NCCc2cccc(F)c2)n1)c1ccccc1` (stereo not shown) [N^2-[2-(3-Fluorophenyl)ethyl]-N^4-(1-phenylethyl)pyrimidine-2,4-diamine] yielded a half-maximal inhibitory concentration (IC50) of no more than 50 nM.

`COc1cccc(CCNc2nc(C)cc(N[C@@H](C)c3ccccc3)n2)c1` [N^2-[2-(3-Methoxyphenyl)ethyl]-6-methyl-N^4-[(1S)-1-phenylethyl]pyrimidine-2,4-diamine] had an IC50 of no more than 50 nM.

Turning to `COc1cccc(CCNc2nccc(NC(C)c3ccccc3)n2)c1` (stereo not shown) [N^2-[2-(3-Methoxyphenyl)ethyl]-N^4-(1-phenylethyl)pyrimidine-2,4-diamine], the half-maximal inhibitory concentration (IC50) is no more than 50 nM.

`CC(Nc1ccnc(NCCc2cccc3c2OCO3)n1)c1ccccc1` (stereo not shown) [N^2-[2-(4-Benzodioxolyl)ethyl]-N^4-(1-phenylethyl)pyrimidine-2,4-diamine] had a concentration for half-maximal inhibition (IC50) of 101 to 200 nM.

Molecule `Cc1cc(N[C@@H](C)c2ccccc2)nc(NCCc2ccc(Cl)cc2)n1` [N^2-[2-(4-Chlorophenyl)ethyl]-6-methyl-N^4-[(1S)-1-phenylethyl]pyrimidine-2,4-diamine] showed an IC50 of no more than 50 nM.

As for `CC(Nc1ccnc(NCCc2ccc(Cl)cc2)n1)c1ccccc1` (stereo not shown) [N^2-[2-(4-Chlorophenyl)ethyl]-N^4-(1-phenylethyl)pyrimidine-2,4-diamine], the IC50 is 51 to 100 nM.

Consider `CC(Nc1ccnc(NCCc2ccc(F)cc2)n1)c1ccccc1` (stereo not shown) [N^2-[2-(4-Fluorophenyl)ethyl]-N^4-(1-phenylethyl)pyrimidine-2,4-diamine], for which the IC50 is no more than 50 nM.

`CC(Nc1ccnc(NCCc2ccc(O)cc2)n1)c1ccccc1` (stereo not shown) [N^2-[2-(4-Hydroxyphenyl)ethyl]-N^4-(1-phenylethyl)pyrimidine-2,4-diamine]: the IC50 was no more than 50 nM.

In turn, `COc1ccc(CCNc2nc(C)cc(N[C@@H](C)c3ccccc3)n2)cc1` [N^2-[2-(4-Methoxyphenyl)ethyl]-6-methyl-N^4-[(1S)-1-phenylethyl]pyrimidine-2,4-diamine] yielded an IC50 of 101 to 200 nM.

In turn, `COc1ccc(CCNc2nccc(NC(C)c3ccccc3)n2)cc1` (stereo not shown) [N^2-[2-(4-Methoxyphenyl)ethyl]-N^4-(1-phenylethyl)pyrimidine-2,4-diamine] came in with an IC50 of 101 to 200 nM.

`Cc1ccc(CCNc2nc(C)cc(N[C@@H](C)c3ccccc3)n2)cc1` [N^2-[2-(4-Methylphenyl)ethyl]-6-methyl-N^4-[(1S)-1-phenylethyl]pyrimidine-2,4-diamine] displayed an IC50 of no more than 50 nM.

In turn, `Cc1ccc(CCNc2nccc(NC(C)c3ccccc3)n2)cc1` (stereo not shown) [N^2-[2-(4-Methylphenyl)ethyl]-N^4-(1-phenylethyl)pyrimidine-2,4-diamine] came in with an IC50 of no more than 50 nM.

For `CC(C)(Nc1ccnc(NCCc2ccccc2)n1)c1ccccc1` [N^4-(1-Methyl-1-phenyl)ethyl)-N^2-(2-phenylethyl)pyrimidine-2,4-diamine], the half-inhibitory concentration (IC50) is no more than 50 nM.

On to `CC(CNc1nccc(NC(C)c2ccccc2)n1)c1ccccc1` (stereo not shown) [N^4-(1-Phenylethyl)-N^2-(2-phenylpropyl)pyrimidine-2,4-diamine], for which the IC50 fell in the range of 51 to 100 nM.

`CC(Nc1ccnc(NCCCc2ccccc2)n1)c1ccccc1` (stereo not shown) [N^4-(1-Phenylethyl)-N^2-(3-phenylpropyl)pyrimidine-2,4-diamine]: the IC50 lay in the range of 51 to 100 nM.

The molecule `CC(Nc1ccnc(NCCc2cccc(C(F)(F)F)c2)n1)c1ccccc1` (stereo not shown) [N^4-(1-Phenylethyl)-N^2-{2-[3-(trifluoromethyl)phenyl]ethyl}pyrimidine-2,4-diamine] displayed an IC50 of 51 to 100 nM.

On to `Clc1ccc(CNc2ccnc(NCCc3ccccc3)n2)c(Cl)c1` [N^4-(2,4-Dichlorophenylmethyl)-N^2-(2-phenylethyl)pyrimidine-2,4-diamine], for which the concentration for half-maximal inhibition (IC50) is 51 to 100 nM.

With `Clc1ccccc1CNc1ccnc(NCCc2ccccc2)n1` [N^4-(2-Chlorophenylmethyl)-N^2-(2-phenylethyl)pyrimidine-2,4-diamine], the IC50 was no more than 50 nM.

For `COc1ccccc1CNc1ccnc(NCCc2ccccc2)n1` [N^4-(2-Methoxyphenylmethyl)-N^2-(2-phenylethyl)pyrimidine-2,4-diamine], the IC50 was no more than 50 nM.

As to `Clc1ccc(CNc2ccnc(NCCOc3ccccc3)n2)cc1Cl` [N^4-(3,4-Dichlorophenylmethyl)-N^2-(2-phenoxyethyl)pyrimidine-2,4-diamine], the IC50 lay within 101 to 200 nM.

`Clc1ccc(CNc2ccnc(NCCc3ccccc3)n2)cc1Cl` [N^4-(3,4-Dichlorophenylmethyl)-N^2-(2-phenylethyl)pyrimidine-2,4-diamine] showed an IC50 of 101 to 200 nM.

As to `Fc1ccc(CNc2ccnc(NCCOc3ccccc3)n2)cc1F` [N^4-(3,4-Difluorophenylmethyl)-N^2-(2-phenoxyethyl)pyrimidine-2,4-diamine], the IC50 is no more than 50 nM.

Molecule `Fc1ccc(CNc2ccnc(NCCc3ccccc3)n2)cc1F` [N^4-(3,4-Difluorophenylmethyl)-N^2-(2-phenylethyl)pyrimidine-2,4-diamine] registered an IC50 of no more than 50 nM.

For the molecule `Fc1cc(F)cc(CNc2ccnc(NCCOc3ccccc3)n2)c1` [N^4-(3,5-Difluorophenylmethyl)-N^2-(2-phenoxyethyl)pyrimidine-2,4-diamine], the half-inhibitory concentration (IC50) was 101 to 200 nM.

These data come from US6630469B2, “5-HT7 receptor antagonists” (Bristol-Myers Squibb Company, priority 2000, dated 2003).
